Measurements reported in patent publication US10456405B2, “Nitric oxide-releasing prodrug molecule of substituted quinazolines” (ZHEJIANG HUAHAI PHARMACEUTICAL CO., LTD, priority 2015, dated 2019).
Where two headings read alike, the source gives them in different places.

Experiments:
[1] = 2 h
Protocol: Experimental method: The tested compounds (2 μM) were added into mouse or human plasma, and incubated at 37° C. Samples were taken at 0, 10, 30, 60 and 120 min respectively. The reaction was stopped by adding a stop agent. The mixture was sufficient shaken, and centrifuged at 4000 rpm for 10 min at 4° C. The supernatant was taken. The concentrations of the tested compounds and their metabolite (H130) in the supernatant were measured by LC-MS/MS.

apoE−/− mice = assay: apoE−/− mouse atherosclerosis model, high-fat diet 10 weeks; assay type: in vivo
Source text: Experimental method: 36 eight-week-old male apoE-/- mice were selected and randomly divided into a blank administration group, an […] administration group, an […] administration group, an […] administration group, an […] administration group, and an […] administration group, 6 mice per group. The mice in each group were fed with high-fat diet for 10 weeks. At the beginning of the high-fat feeding, the mice in each group were administrated. Each tested compound was intragastric administered at the dose of 150 mg/kg twice a day. The blank administration group was given corresponding dose of saline. […] After the blood was taken, the serum, heart, and aorta were isolated. The levels of total cholesterol (TC), high density lipoprotein cholesterol (HDL-C), and low density lipoprotein cholesterol (LDL-C) in the serum of the mice in each group were measured by automatic biochemical analyzer. The ApoA1 expression level was detected with an ApoA1 kit. The content of NO in the serum of the mice was determined with a total NO test kit (Beyotime). The NOS activities of the heart, aorta, and serum were determined with an NOS test kit (Beyotime). The content of eNOS was calculated by the difference between the measured values determined before and after adding eNOS inhibitor L-NAME (Beyotime).

[2] = rat, in vivo
Protocol: Experimental method: Intravenous injection solutions (the administration concentrations of the tested compounds were 1 mg/kg) and oral gastric perfusates (the administration concentrations of the test compounds were 5 mg/kg) of the test compounds were prepared, and intravenously and orally administered to three SD rats, respectively. The concentrations of the whole blood for H130 at 0.083 h, 0.25 h, 0.5 h, 1 h, 2 h, 4 h, 8 h, and 24 h after administration were determined by LC-MS/MS, respectively. The pharmacokinetic parameters were compared by a drug-time curve. Sample pretreatment: 150 μL of the whole blood to be tested was aspirated accurately. 600 μL of internal standard solution (diluted to 0.5 μg/mL with methanol) was added, sufficiently mixed by a vortex mixer, and centrifuged at 13000 r/min for 20 min at 4° C. 3 μL of the supernatant was taken into a sample vial.
Chromatographic conditions: C18 reversed-phase chromatographic column; gradient elution with mobile phase A: water/acetonitrile (v:v=95:5) with 0.025% of formic acid and 1 mM of ammonium acetate added thereto, and mobile phase B: acetonitrile/water (v:v=95:5) with 0.025% of formic acid and 1 mM of ammonium acetate added thereto.

ApoA-I mRNA = assay: Regulation of ApoA-I mRNA in HepG2 cells (real-time PCR); assay type: cell-based; design: key: Active: When 100 μM of the tested compound allowed ApoA-I mRNA in HepG2 cells to increase more than 15%, then the test compound was known as an ApoA active compound; conditions: 100 μM, 48 h, relative to DMSO control
Protocol: Experiment 5. Regulation of the Tested Compounds on ApoA-I mRNA HepG2 cells were cultured for 24 h in a 24-well plate with 400 μl of MEM medium containing 0.5% (v/v) of fetal bovine serum. Then each of the tested compounds (100 μM) and the positive control RVX-208 (100 μM) were added. The cells were cultured for another 48 h. The medium was aspirated out. After washing with 200 μl of PBS, 85 μl of cell lysis solution was added into the cells in each well. The cells were incubated at room temperature for 5 to 10 min to be completely dissolved and detached. The mRNA was extracted from the cells with a kit. The extracted mRNA were used for a real-time fluorescence quantitative PCR detection with RNA Fluorescence (RiboGreen) Quantitation Assay Kit and ApoA-I mRNA Primer-Probe Mixture from the company of Applied Biosystems.
After obtaining the Ct values, the induction fold of each test compound relative to DMSO control was calculated. The induction fold was used to reflect the ability of regulating ApoA-I mRNA for the tested compounds. When 100 μM of the tested compound allowed ApoA-I mRNA in HepG2 cells to increase more than 15%, then the test compound was known as an ApoA active compound.

db/db mice = assay: Serum NO and heart eNOS in db/db mice after oral gavage; assay type: in vivo; conditions: blank = 100, oral gavage 150 mg/kg (isosorbide mononitrate 5 mg/kg), 1 h after administration (H101: 2 h)
Source text: Experimental method: 25 eight-week-old db/db mice (strain: BKS.Cg−+Leprdb/+leprdb/JclSlac; grade: SPF; gender: male; source: Shanghai SLAC Laboratory Animal Co., Ltd.) were selected. 3 of them were selected as the blank administration control. 2 mice were used as the positive drug control (isosorbide mononitrate). The remaining 20 mice were randomly divided into 5 groups, 4 mice per group, which are H101 administration group, H111 administration group, H116 administration group, H119 administration group, and H130 administration group. The tested compounds of the positive drug control group and each administration group were dissolved in DMSO. Then PEG400 was added. The mixture was shaken and mixed thoroughly. At last, 10% of HP-β-CD was added. The mixture was shaken and mixed thoroughly. The ratio of each solvent was DMSO: PEG400:10% of HP-β-CD=5:67.5:27.5. The administration group was administered by oral gavage at the dose of 150 mg/kg. The positive drug control group was administered at the dose of 5 mg/kg. The mice in the H101 administration group were sacrificed at 2 h after the administration. The mice in the remaining administration groups were sacrificed at 1 h after the administration. The blood was collected respectively into 1.5 mL centrifuge tube, standing at room temperature for more than 30 min, and then centrifuged (3000 rpm, 10 min). The supernatant serum was aspirated, and stored at −80° C. for testing. After the blood was collected, the heart was cut with the thoracic aorta. Three parts of the heart were weighed and placed into cryovials, rapidly frozen in liquid nitrogen, and cryopreserved at −80° C. for testing. The aorta and aortic arch were weighed, rapidly frozen in liquid nitrogen, and cryopreserved at −80° C. for testing. The content of NO in the serum of the […] mice was determined by a total NO test kit (Beyotime). The content of NOS in the heart of the mice was determined with an NOS test kit (Beyotime). The content of eNOS was calculated by the difference between the measured values before and after adding the eNOS inhibitor L-NAME (Beyotime).

[3] = Release of HNO (headspace gas chromatography of nitrous oxide); conditions: PBS pH 7.4, 37° C., argon, 90 min
Protocol: Experiment 2. Experimental study on the tested compounds for releasing HNO HNO rapidly dimerizes and dehydrates to produce nitrous oxide in aqueous solution. In the experiment of detecting HNO, gas chromatographic headspace analysis is generally used to determine the amount of the released nitrous oxide, thereby indirectly detect the level of releasing HNO of the compound.
Experimental procedure: Each of the tested compounds was prepared to 20 mg/mL of mother liquor with DMF. Prior to the start of the experiment, 50 μL of drug mother liquor was placed into a 20 mL headspace sample vial. The tested compound was diluted by adding 5 mL of PBS buffer with pH 7.4. The temperature of the resulting sample was kept at 37° C. under argon gas for 90 min. Then the top gas was extracted for gas chromatographic analysis of nitrous oxide by using Angeli's Salt as a positive compound in the experiment.

C57BL/6 mice = assay: Serum NO level in C57 mice after oral gavage; assay type: in vivo; conditions: oral gavage 150 mg/kg (positive drug 5 mg/kg), FIG. 1
Source text: Experimental method: 60 eight-week-old C57BL/6 mice (level: SPF; gender: male; source: Shanghai SLAC Laboratory Animal Co., Ltd.) were selected. […] were selected as the blank control. 12 mice were used as the positive drug control (isosorbide mononitrate). 12 mice were used as […] administration group. The other 32 mice were randomly divided into 4 groups, 8 mice per group, which are […] administration group, […] administration group, […] administration group, and […] administration group, respectively. The tested compounds of the positive drug control group and each administration group were dissolved in DMSO and then PEG400 was added thereto. The mixture was shaken and mixed thoroughly. At last, 10% of HP-β-CD was added. The mixture was shaken and mixed thoroughly. The ratio of each solvent was DMSO: PEG400:10% of HP-β-CD=5:67.5:27.5. The administration groups were administered by oral gavage at the dose of 150 mg/kg. The positive drug control group was administered at the dose of 5 mg/kg. The mice in each group were sacrificed by inhaling excess CO2 at 10 min, 30 min, 60 min, 120 min, 180 min, and 240 min after administration. The blood was collected into a 1.5 mL centrifuge tube, standing at room temperature for more than 30 min, and then centrifuged (3000 rpm, 10 min). The supernatant serum was aspirated, and stored at -80° C. for testing. After the blood was collected, the heart was cut with the thoracic aorta. Three parts of the heart were weighed and placed into cryovials, rapidly frozen in liquid nitrogen, and cryopreserved at -80° C. for testing. The aorta and aortic arch were weighed, rapidly frozen in liquid nitrogen, and cryopreserved at -80° C. for testing. The content of NO in the serum of C57BL/6 mice was determined by using the total NO test kit (Beyotime).

[4] = Release of nitric oxide in vitro (Griess reagent, nitrite); conditions: 10^−4 mol/L tested substance, phosphate buffer pH 7.4, cysteine 5 mmol/L, 37° C., 1 h; as nitrite
Protocol: Experiment 1. Experimental Study on the Tested Compounds for Releasing Nitric Oxide in vitro
Experimental Procedure: • (1) Preparation of Griess Reagent: 4 g of aminobenzenesulfonamide, 0.2 g of N-naphthyl ethylene diamine hydrochloride, and 10 mL of 85% phosphoric acid solution were taken to form a solution, which is diluted to 100 mL with distilled water. • (2) Plotting of the standard curve: a serie of standard solution of 0.01, 0.03, 0.05, 0.07, 0.09, 0.2, 0.4 μg/mL of nitrite nitrogen was prepared, 10 mL of each was taken to sufficiently mix with 2.5 mL of Griess reagent, standing at room temperature for 10 min, and its absorbance value at the wavelength of 540 nm was measured. The standard curve was plotted based on the resulting data. • (3) Measuring the amount of the released NO of the tested drug: all of the tested substances were dissolved in dimethylsulfoxide (1 mL) firstly. Then phosphate buffer (pH 7.4) was slowly added dropwise, and shaken. The drug solution was diluted to 50 mL, allowing the buffer solution to contain excess cysteine (5 mmol/L), and the final concentration of the tested substances being 10^−4 mol/L; the solution was incubated at 37° C. 2 mL of the reaction solution was taken to mix with 500 μl of Griess reagent at 1 h respectively, standing at room temperature for 10 min. The absorbance value of the mixture at 540 nm was measured. Isosorbide mononitrate was used as a positive control, and H130 was used as a negative control. The amount of the released NO was represented by the amount of its oxidation product, nitrite (NO2^−).

[5] = blank administration group = 100, 150 mg/kg twice a day, 10 weeks
[6] = serum, high-fat diet 10 weeks, intragastric 150 mg/kg twice a day

Row | SMILES | stability in human plasma [1] | Aorta eNOS (apoE−/− mice; [5]) [%] | ApoA1 (apoE−/− mice; [5]) [%] | Heart eNOS (apoE−/− mice; [5]) [%] | Serum NO (apoE−/− mice; [5]) [%] | Serum eNOS (apoE−/− mice; [5]) [%] | HDL-C (apoE−/− mice; [6]) [mg/dL] | LDL-C (apoE−/− mice; [6]) [mg/dL] | TC (apoE−/− mice; [6]) [mg/dL] | release of prototype compound H130 after administration [2] | AUCRatio (Dosage Calibration) ([2]; iv, 1 mg/kg) [%] | AUCRatio (Dosage Calibration) ([2]; po, 5 mg/kg) [%] | Upregulation of Apoa-I Mrna Level (ApoA-I mRNA) | Heart eNOS (db/db mice) [%] | Serum NO (db/db mice) [%] | Molar Quantities of N2O/Sample [3] [%] | time after administration at which serum NO level rose to its maximum, then decreased (C57BL/6 mice) [h] | Amount of Released No [4] [µM]
1 | COc1cc(OC)c2c(=O)[nH]c(-c3cc(C)c(OCCOC(=O)CCC(=O)ONS(=O)(=O)c4cccc(S(C)(=O)=O)c4)c(C)c3)nc2c1 [Compound H116] | good stability | 136 | 128 | 148 | 138 | 123 | 74 ± 11 | 315 ± 31 | 1123 ± 73 | can be rapidly released | 51.6 | 45.3 | Active | 159 | 147 | 15.3 |  | 
2 | O=[N+]([O-])O[C@@H]1CO[C@H]2[C@@H]1OC[C@@H]2O [Isosorbide Mononitrate, Isosorbide mononitrate, reference compound] |  |  |  |  |  |  |  |  |  |  |  |  |  | 169 | 136 |  | 2 | 3.31
